Measured values reported in PubChem BioAssay (NCI).
Values joined by “and” are separate entries in the source; they are usually repeats but may differ in a detail not shown here. Identical values can stand only once.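 In this assay, cells in 96-well plates receive the compound at five concentrations for 48 hours. Endpoints are linearly interpolated between the surrounding concentrations. GI50 = concentration required for 50% inhibition of growth. Definition used: TGI = concentration required for complete inhibition of growth.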

What was measured:
Experiment in all cases: NCI tumour cell line growth inhibition, 48 h
[1] = test system: BT-549 breast
[2] = test system: MDA-N
[3] = test system: OVCAR-4 ovarian
[4] = test system: HCT-15 colon
[5] = test system: LOX IMVI melanoma
[6] = test system: MCF7 breast
[7] = test system: UACC-62 melanoma
[8] = test system: M14 melanoma
[9] = test system: SK-MEL-2 melanoma
[10] = test system: SF-539 CNS

Compound: CCCCn1cnc2c(c(CC#N)nn2-c2ccccc2)c1=N
- TGI [1]: > 100 µM
- TGI [2]: > 100 µM
- TGI [3]: > 100 µM
- TGI [4]: > 100 µM
- TGI [5]: > 100 µM
- TGI [6]: > 100 µM
- TGI [7]: 53.1 µM
- TGI [8]: > 100 µM
- TGI [9]: 62.1 µM

Compound: CC(=O)O/N=C/c1c2ccccc2cc2ccccc12
- TGI [4]: > 100 µM
- TGI [5]: > 100 µM
- TGI [6]: > 100 µM
- TGI [7]: > 100 µM
- TGI [8]: > 100 µM
- TGI [10]: > 100 µM

Compound: CCCCNC(=S)N/N=C/c1cccc(C)n1
- TGI [1]: > 100 µM
- TGI [2]: > 100 µM
- TGI [3]: > 100 µM
- TGI [4]: > 100 µM
- TGI [5]: > 100 µM
- TGI [6]: > 100 µM
- TGI [7]: 68.3 µM
- TGI [8]: 48.6 µM
- TGI [10]: 96.8 µM

Compound: N#CC1=C(c2ccccc2)NNC(c2ccc(Cl)cc2)CC1=O (stereo not drawn)
- TGI [3]: > 100 µM
- TGI [4]: > 100 µM
- TGI [5]: > 100 µM
- TGI [8]: 68.9 µM
- TGI [9]: 90.4 µM

Compound: O=C(Cc1ccccc1)NN1C(=O)/C(=C\c2ccccc2)SC1=Nc1ccccc1
- TGI [1]: > 100 µM
- TGI [2]: > 100 µM
- TGI [3]: > 100 µM
- TGI [4]: > 100 µM
- TGI [6]: > 100 µM
- TGI [7]: > 100 µM
- TGI [8]: > 100 µM
- TGI [10]: > 100 µM
- TGI [9]: > 100 µM

Compound: O=C(CN(c1ccccc1)c1ccccc1)N1c2ccccc2C2C=CC=CC21 (stereo not drawn)
- TGI [3]: > 100 µM
- TGI [4]: 32.1 µM
- TGI [5]: 44.5 µM
- TGI [7]: 50.6 µM
- TGI [8]: > 57.3 µM
- TGI [10]: 43.8 µM
- TGI [9]: 38.8 µM

Compound: Cc1ccc([N+](=O)[O-])cc1N=NC(=O)NNc1cc([N+](=O)[O-])ccc1C
- TGI [1]: 52.1 µM
- TGI [2]: 82.8 µM
- TGI [4]: 74.3 µM
- TGI [6]: 67.3 µM
- TGI [7]: 33.2 µM
- TGI [8]: 53.5 µM
- TGI [9]: > 100 µM

Compound: CC1CN=C(N(C(=O)Nc2ccc(F)c(Cl)c2)c2ccccc2)S1 (stereo not drawn)
- TGI [2]: 34.7 µM
- TGI [3]: > 100 µM
- TGI [4]: 75.3 µM
- TGI [5]: 32.5 µM
- TGI [6]: 25.9 µM
- TGI [8]: 75.5 µM
- TGI [10]: > 100 µM
- TGI [9]: 32.8 µM

Compound: CC1(C)C2CC(=O)C1(C)C(O)C2Br (stereo not drawn)
- TGI [1]: > 100 µM
- TGI [2]: > 100 µM
- TGI [4]: > 100 µM
- TGI [6]: > 100 µM
- TGI [7]: > 100 µM
- TGI [8]: > 100 µM
- TGI [10]: > 100 µM
- TGI [9]: > 100 µM

Compound: O=C(NCCCN(CCCCN(CCCNC(=O)C(F)(F)F)Cc1ccc2ccccc2c1)Cc1ccc2ccccc2c1)C(F)(F)F
- TGI [1]: > 100 µM
- TGI [3]: > 100 µM
- TGI [4]: > 100 µM
- TGI [5]: > 100 µM
- TGI [6]: 4.54 µM
- TGI [7]: 5.41 µM
- TGI [8]: 4.54 µM
- TGI [10]: > 100 µM
- TGI [9]: > 100 µM

Compound: CCN(CC)CCCNC(=O)c1ccc([N+](=O)[O-])cc1O
- TGI [3]: > 100 µM
- TGI [4]: > 100 µM
- TGI [5]: > 100 µM
- TGI [7]: > 100 µM
- TGI [8]: > 100 µM
- TGI [10]: > 100 µM
- TGI [9]: > 100 µM

Compound: O=C(NC(COC(=O)C(Cc1ccccc1)NC(=O)c1ccccc1)Cc1ccccc1)c1ccccc1 (stereo not drawn)
- TGI [3]: > 50 µM
- TGI [4]: > 50 µM
- TGI [6]: > 50 µM
- TGI [7]: > 50 µM
- TGI [8]: > 50 µM
- TGI [10]: > 50 µM
- TGI [9]: > 50 µM

Compound: Nc1nc(N)c(N=O)c(Nc2ccc(Br)cc2)n1
- TGI [3]: > 100 µM
- TGI [4]: > 100 µM
- TGI [5]: 66.5 µM
- TGI [7]: 19.4 µM
- TGI [8]: 52.8 µM
- TGI [10]: 56.5 µM
- TGI [9]: 49.6 µM

Compound: COc1cc2nc(-c3cccs3)oc(=O)c2cc1OC
- TGI [1]: > 100 µM
- TGI [3]: > 100 µM
- TGI [4]: > 100 µM
- TGI [5]: > 100 µM
- TGI [6]: > 100 µM
- TGI [7]: > 100 µM
- TGI [8]: > 100 µM
- TGI [10]: > 100 µM
- TGI [9]: > 100 µM

Compound: N=C(N)c1ccc(-c2ccc(-c3cccs3)s2)cc1
- GI50 [1]: 3.77 µM
- TGI [1]: 14.5 µM
- GI50 [3]: 1.71 µM
- TGI [3]: 4.24 µM
- GI50 [7]: 1.68 µM
- TGI [7]: 3.18 µM
- GI50 [10]: 1.65 µM
- TGI [10]: 3.09 µM
- GI50 [9]: 13.4 µM
- TGI [9]: 32 µM

Compound: COc1cc2c(cc1OC)[C@H]1CN3CCC[C@H]3C=C1c1ccc(OC)c(O)c1-2
- TGI [1]: 0.206 µM
- TGI [2]: 0.112 µM
- TGI [3]: 0.00362 µM
- TGI [5]: 0.000604 µM
- TGI [7]: 0.000267 µM
- TGI [8]: 0.000985 µM
- TGI [10]: 0.0058 µM and 0.0358 µM
- TGI [9]: 0.000975 µM

Compound: CCOC(=O)C1(C(=O)OCC)COS(=O)OC1
- TGI [2]: > 100 µM
- TGI [3]: 42.6 µM
- TGI [4]: 54.6 µM
- TGI [5]: 28.4 µM
- TGI [6]: 36.6 µM
- TGI [8]: > 100 µM

Compound: O=C1NCCS(=O)(=O)N[C@@H](CC2=CC=CCC2)C(=O)N2CCCC12 (stereo partly drawn)
- TGI [3]: > 100 µM
- TGI [4]: > 100 µM
- TGI [5]: > 100 µM
- TGI [7]: > 100 µM
- TGI [8]: > 100 µM
- TGI [10]: > 100 µM
- TGI [9]: > 100 µM

Compound: O=C1Sc2ccccc2C(=O)N2CSCC12 (stereo not drawn)
- TGI [5]: > 100 µM
- TGI [7]: > 100 µM
- TGI [8]: > 100 µM
- TGI [10]: > 100 µM
- TGI [9]: > 100 µM

Compound: C[C@@H](Cl)[C@H]1CCCN(Cc2ccc(Br)cc2)C1
- TGI [2]: > 12.5 µM
- TGI [3]: > 12.5 µM
- TGI [4]: > 12.5 µM
- TGI [5]: > 12.5 µM
- TGI [6]: > 12.5 µM
- TGI [7]: > 12.5 µM
- TGI [8]: > 12.5 µM
- TGI [10]: > 12.5 µM
- TGI [9]: > 12.5 µM

Compound: CC(=O)c1cccn1/C=C(\OC(=O)OC(C)(C)C)c1ccc[nH]1
- TGI [1]: > 100 µM
- TGI [2]: > 100 µM
- TGI [3]: > 100 µM
- TGI [4]: > 100 µM
- TGI [5]: > 100 µM
- TGI [6]: > 100 µM
- TGI [7]: > 100 µM
- TGI [8]: > 100 µM
- TGI [9]: > 100 µM

Compound: C=Cc1ccc(C)[n+](C[Si](C)(C)O[Si](C)(C)C[n+]2cc(C=C)ccc2C)c1
- TGI [3]: > 100 µM
- TGI [5]: > 100 µM
- TGI [7]: > 100 µM
- TGI [8]: > 100 µM
- TGI [10]: > 100 µM
- TGI [9]: > 100 µM

Compound: COc1cc2cc(Oc3ccc(NC(=O)c4cc(C(F)(F)F)cc(C(F)(F)F)c4)cc3)c(C)nc2cc1OC
- GI50 [1]: 3.02 µM
- TGI [1]: > 50 µM
- GI50 [3]: 4.53 µM
- TGI [3]: > 50 µM
- GI50 [4]: 2.75 µM
- TGI [4]: > 50 µM
- GI50 [5]: 47 µM
- TGI [5]: > 50 µM
- GI50 [6]: 1.91 µM
- TGI [6]: > 50 µM
- GI50 [8]: 3.23 µM
- TGI [8]: > 50 µM
- GI50 [10]: > 50 µM
- TGI [10]: > 50 µM
- GI50 [9]: 15.8 µM
- TGI [9]: > 50 µM

Compound: O=c1[nH]cnc(NC2C=C(CO)C(O)C2O)c1[N+](=O)[O-] (stereo not drawn)
- TGI [3]: > 100 µM
- TGI [4]: > 54.7 µM
- TGI [5]: > 59.6 µM
- TGI [7]: > 100 µM
- TGI [8]: > 100 µM
- TGI [10]: > 100 µM
- TGI [9]: > 100 µM

Compound: COC(=O)c1cc2c(cc1CC1Cc3cc4c(cc3C1)CCC4)CCC2
- TGI [2]: > 100 µM
- TGI [3]: > 100 µM
- TGI [4]: > 100 µM
- TGI [5]: 55 µM
- TGI [6]: 91.2 µM
- TGI [8]: > 100 µM
- TGI [10]: > 100 µM
- TGI [9]: 54 µM
